Measurements from the supplement of paper PMC10307832.

Legend:
Test in all cases: relative viability (nuclei count vs DMSO), 5 days (fraction); higher = more cells survive
Pemetrexed + Bortezomib = compound: Nc1nc2[nH]cc(CCc3ccc(C(=O)N[C@@H](CCC(=O)O)C(=O)O)cc3)c2c(=O)[nH]1 [Pemetrexed] + CC(C)C[C@H](NC(=O)[C@H](Cc1ccccc1)NC(=O)c1cnccn1)B(O)O [Bortezomib] (partner 0.002 µM)
How it was run: (§1)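 For relative viability, nuclei counts in treated wells were divided by those in vehicle wells. Lung cancer cell lines had been pin-tool dosed in 1536-well plates the day after seeding and cultured for 5 days, then fixed and stained in one step (final 0.05% Triton X-100, 1% formaldehyde, 1 ug/ml Hoechst) and imaged at 4×. Doses were one drug alone or a fixed anchor-drug dose plus five library-drug doses (not always all listed) in √10 steps, and values are duplicate-plate medians.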

Pemetrexed + Crizotinib = compound: Nc1nc2[nH]cc(CCc3ccc(C(=O)N[C@@H](CCC(=O)O)C(=O)O)cc3)c2c(=O)[nH]1 [Pemetrexed] + C[C@@H](Oc1cc(-c2cnn(C3CCNCC3)c2)cnc1N)c1c(Cl)ccc(F)c1Cl [Crizotinib] (partner 1 µM)
How it was run: as §1

Pemetrexed + Alpelisib = compound: Nc1nc2[nH]cc(CCc3ccc(C(=O)N[C@@H](CCC(=O)O)C(=O)O)cc3)c2c(=O)[nH]1 [Pemetrexed] + Cc1nc(NC(=O)N2CCC[C@H]2C(N)=O)sc1-c1ccnc(C(C)(C)C(F)(F)F)c1 [Alpelisib] (partner 2 µM)
How it was run: as §1

Pemetrexed + Dasatinib = compound: Nc1nc2[nH]cc(CCc3ccc(C(=O)N[C@@H](CCC(=O)O)C(=O)O)cc3)c2c(=O)[nH]1 [Pemetrexed] + Cc1nc(Nc2ncc(C(=O)Nc3c(C)cccc3Cl)s2)cc(N2CCN(CCO)CC2)n1 [Dasatinib] (partner 0.075 µM)
How it was run: as §1

Cell Line	relative viability (Pemetrexed + Bortezomib; first compound 0.002 µM)	relative viability (Pemetrexed + Bortezomib; first compound 0.006325 µM)	relative viability (Pemetrexed + Bortezomib; first compound 0.02 µM)	relative viability (Pemetrexed + Bortezomib; first compound 0.06325 µM)	relative viability (Pemetrexed + Bortezomib; first compound 0.2 µM)	relative viability (Pemetrexed + Crizotinib; first compound 0.002 µM)	relative viability (Pemetrexed + Crizotinib; first compound 0.006325 µM)	relative viability (Pemetrexed + Crizotinib; first compound 0.02 µM)	relative viability (Pemetrexed + Crizotinib; first compound 0.06325 µM)	relative viability (Pemetrexed + Crizotinib; first compound 0.2 µM)	relative viability (Pemetrexed + Alpelisib; first compound 0.002 µM)	relative viability (Pemetrexed + Alpelisib; first compound 0.006325 µM)	relative viability (Pemetrexed + Alpelisib; first compound 0.02 µM)	relative viability (Pemetrexed + Alpelisib; first compound 0.06325 µM)	relative viability (Pemetrexed + Alpelisib; first compound 0.2 µM)	relative viability (Pemetrexed + Dasatinib; first compound 0.002 µM)	relative viability (Pemetrexed + Dasatinib; first compound 0.006325 µM)	relative viability (Pemetrexed + Dasatinib; first compound 0.02 µM)	relative viability (Pemetrexed + Dasatinib; first compound 0.06325 µM)	relative viability (Pemetrexed + Dasatinib; first compound 0.2 µM)
HCC-827	0.961	1.02	1.01	1.01	0.748	0.856	1.03	0.944	0.888	0.779	0.891	0.977	0.996	1.07	0.726	0.369	0.287	0.349	0.362	0.339
PC-3 [JPC-3]	0.66	0.74	0.925	0.854	0.772	0.935	0.985	0.926	1.11	0.935	0.948	1.04	1.04	1.03	0.972	0.845	0.988	1.03	0.983	0.941
NCI-H1355	0.952	1.33	1.21	1.21	1.15	0.933	0.964	1.13	1.06	1.07	0.805	0.768	0.822	0.843	0.858	0.612	0.692	0.703	0.748	0.752
NCI-H727	0.807	0.892	0.74	0.897	0.742	0.56	0.782	0.877	0.986	0.732	0.577	0.534	0.596	0.678	0.594		0.395	0.386	0.421	0.381
NCI-H1975		0.427	0.386	0.309	0.213		0.879	0.987	0.806	0.438		0.63	0.704	0.535	0.4	0.249	0.333	0.429	0.342	0.275
NCI-H460	1.06	1	1.16	0.177	0.0656	0.842	0.794	1.02	0.197	0.0567	0.479	0.344	0.518	0.151	0.0576	0.357	0.536	0.524	0.406	0.101
EPLC-272H	0.682	0.888	1.16	0.848	0.926	0.781	0.913	1.07	0.981	0.853	0.876	0.938	1.11	0.962	0.847	0.328	0.382	0.419	0.299	0.297
SK-LU-1	0.949	1.21	1.3	1.08	1.31	0.771	0.883	0.858	0.953	0.731	0.874	1.02	1.04	0.931	1.02	0.184	0.205	0.185	0.198	0.162
NCI-H322M	1.32	1.06	1.22	1.29	1.19	0.886	0.884	1.05	0.912	0.778	0.814	0.724	0.813	0.776	0.773	0.248	0.257	0.262	0.242	0.235
NCI-H2405	0.983	0.974	1.05	0.986	0.96	0.868	0.785	0.869	0.824	0.825	0.896	0.714	0.868	0.712	0.736	0.182	0.228	0.228	0.205	0.209
NCI-H1666	0.682	0.752	0.875	0.766	0.421	1.08	0.9	0.986	0.865	0.635	1.02	0.853	0.969	0.88	0.595	0.778	0.857	0.818	0.754	0.585
H3255		0.834	0.933	0.692	0.572		0.952	0.926	0.864	0.608		0.656	0.736	0.606	0.632	0.236	0.403	0.429	0.362	0.29
NCI-H1563	0.784	0.869	0.978	0.855	0.932	0.946	0.837	0.878	0.911	0.938	0.904	0.922	0.976	0.875	0.954	0.24	0.453	0.486	0.426	0.492
LCLC-103H	1.08	1.01	1	1.23	1.02	0.94	1.01	1.07	1.08	1.07	0.971	0.992	1.04	1.01	0.959	0.43	0.508	0.55	0.436	0.489
NCI-H2347	0.678	1.26	1.07	0.903	0.599	0.689	0.616	0.694	0.577	0.477	0.858	0.893	1.07	0.869	0.633	0.269	0.169	0.351	0.319	0.272
HCC-15	0.916	0.995	1.12	1.02	0.562	0.747	0.824	0.883	0.775	0.473	0.821	0.847	0.867	0.666	0.519	0.661	0.609	0.619	0.31	0.148
